Measurements published in patent publication US20200296971A1, “COMPOSITIONS AND METHODS FOR DISPERSING BIOFILMS” (Texas State University, priority 2016, published 2020).
Read-outs that look alike come from different tables or passages of the source.

Experiments:
[1] = tested on: river water biofilm; conditions: 0.5% boric acid, 60 seconds, FIG. 2B
Protocol: To visualize biofilm dispersion a water sample from the sampling site was collected. A microscope slide was placed in 30 ml of river water to cultivate a biofilm. The biofilm was then viewed under a dark field microscope and a 0.5% concentration of boric acid was applied and left for 60 seconds. FIG. 2A depicts a photograph of a microscope slide of river water with biofilms.

[2] = tested on: monoculture biofilm of Chromobacterium violaceum; conditions: 0.5% boric acid, 2 hours, lightly shaken
Protocol: Test of application: A 0.5% boric acid was injected into a bioreactor containing a monoculture biofilm of Chromobacterium violaceum. The bioreactor was left for 2 hours and lightly shaken.

[3] = tested on: P. aeruginosa PAO-1; conditions: Luria Broth, R2A broth, Davis minimal media with 0, 0.5, 1.0, 1.5% boric acid, FIG. 3
Protocol: (§1) In most experiments, cultures were grown in 96-well polystyrene microtiter plates as this allowed different growth media and replicates to be tested using an automated plate reader. Growth of suspended (planktonic) bacteria could be measured by the turbidity in the individual microtiter plate chambers (referred to as wells). […] To test for dispersion, the planktonic populations and growth media were removed and replaced with water containing various concentrations of the test compound. Dispersion was observed by an increase in turbidity (due to release of bacteria from biofilms) over 20 minutes.

[4] = tested on: P. aeruginosa biofilms; conditions: 24 h at 37 C
Protocol: as §1
Experiments were conducted in order to examine the ability of P. aeruginosa biofilms grown on different growth media to be dispersed by boric acid. Here, bacteria were grown for 24 h at 37 C on an orbital shaking plate in a microtiter plate. The media was removed and the adherent P. aeruginosa biofilms were exposed to boric acid, placed in a plate reader and turbidity measured following agitation.

[5] = tested on: P. aeruginosa biofilms; conditions: FIG. 4, line B
Description: To further study the mechanisms of boric acid-induced dispersion a collaboration with Dr. Karin Sauer, Binghamton University was initiated. […] FIG. 4 depicts a bar graph summarizing the results of experiments directed towards determining the ability of boric acid to disperse P. aeruginosa biofilms. The line designated as B is boric acid, D represents a positive control for dispersion and E a negative control.

[6] = tested on: P. aeruginosa biofilms
Protocol: P. aeruginosa was grown as planktonic and biofilm populations in different growth media for 48-120 h. Antimicrobial agents were tested in different boric acid concentrations. Boric acid controls lacked the antimicrobial compounds. Initial planktonic growth and dispersion were measured as described previously. After dispersion, the disinfectant and boric acid compounds were removed, replaced with sterile growth medium, and growth monitored by being placed into the plate reader and monitoring an increase of turbidity over an 18-36 h period.
Experiments were conducted in order to determine the ability of boric acid to enhance the antimicrobial action of betadine (poly(vinyl pyrrolidone) iodine). Betadine is commonly used as a disinfectant in clinical environments and the low concentration used (0.02% (w/v)) was chosen based on previous work as it has partial biofilm effectiveness. P. aeruginosa biofilms were grown for 2 and 5 days suspended above a shaking water bath. […] The media used consisted of artificial urine and artificial urine supplemented with 2 mM glucose (reflecting average urine chemistry in normal and diabetic patients). Davis minimal media (MM) and Luria-Bertani broth (LB) were used as representative minimal and rich media. Different biofilm incubation times were used as it is known that biofilm susceptibility to dispersion can increase with biofilm age.
The testing protocol involved the use of a 96-well microtiter plate and a programmable plate reader (Biotek Instruments). The plate reader was programmed for incubation at 37 C and would agitate the plate for 15 seconds prior to taking an absorbance reading of each well. Microtiter wells were partially filled (200 μl) with sterile growth media, then were inoculated with 2 μl of an overnight bacterial culture suspension. For each media and disinfection combination there were a minimum of two replicates as well as uninoculated wells (media without bacteria) to monitor contamination. The microtiter plates were covered with a lid and the sides sealed with Parafilm™ to prevent contamination. Plates were placed on a rack (above the water level) in a water bath, and incubated with shaking (150 rpm) for 2 and 5 days. Testing consisted of removing a plate from the incubator, placing in the plate reader for 30 minutes (allowing for evaporation of humidity) and reading the turbidity (evidence of planktonic growth). Culture media and planktonic cells were removed from the wells and 200-μl dispersant solution containing a mixture of boric acid and 0.02% (w/v) betadine suspended in PBS. Betadine was absent in the control samples. The microtiter plate was placed in the plate reader for 30 minutes (allowing for evaporation of humidity) and turbidity measurements taken (increased turbidity was evidence of biofilm dispersion). To measure biofilm survival, the plates were removed from the plate reader, the dispersant liquid removed, and replaced with sterile LB growth media. The plates were then placed in the plate reader and growth measured (increased turbidity) over a minimum 18 h period.

[7] = tested on: Biofilms from a nearby river; conditions: river biofilm on stone, 5 minutes exposure, tested 0%, 0.25%, 0.5%, 1%, 2%, 3%
Protocol: Biofilms are described on the surface of small (15 mm×15 mm) stone.
Biofilms were exposed to various concentrations of Boric Acid. The concentrations used were 0%, 0.25%, 0.5%, 1%, 2%, 3%.
One stone was used per concentration and was measured and weighed for similarity. Each stone was rinsed with sterile H2O to remove any planktonic (not attached to biofilm) bacteria. Each stone was exposed to a known concentration for a time period of 5 minutes and then removed and placed into a separate vial containing 9 ml of sterile water. The vial with after treatment stone in sterile water was then sonicated for 60 seconds to remove any remaining biofilm to be quantified. Sonication served as a mechanical removal for any remaining biofilm.
Media was then placed in 30 C for 48 hrs and growth was quantified through counting colonies.

[8] = tested on: other organisms; conditions: FIG. 3

## OB(O)O [boric acid]
[1]
  biofilm dispersion seen under dark field microscope: dispersed
[2]
  removal of visible biofilm from bioreactor: All visible biofilm was removed
[3]
  ability to grow in the presence of boric acid: grew in the presence of boric acid
[4]; Davis Minimal Media-grown biofilms
  boric acid concentration at which increased turbidity (evidence of dispersion) was seen: 1.0%
[4]; LB-grown biofilms
  dispersion (increased turbidity): no observable dispersion
[4]; R2A-grown biofilms
  boric acid concentration at which increased turbidity (evidence of dispersion) was seen: 0.5%
[5]
  ability to disperse biofilms in flow cell: verified the ability of boric acid to disperse P. aeruginosa biofilms
[6]; 5-day old PAO-1 biofilms grown in artificial urine, FIGS. 13 and 14, preliminary
  enhancement of betadine activity against older biofilms: does enhance the activity of betadine
[6]; 2 day old biofilms, artificial urine, boric acid without betadine, FIG. 6
  regrowth after treatment: growth did occur
[6]; artificial urine with glucose, FIG. 7
  effect of boric acid on betadine action: no effect
[6]; at the concentrations listed, preliminary results
  boric acid-induced toxicity: low level of boric acid-induced toxicity
[6]; two-day biofilms, Davis Minimal Media and Luria-Bertani broth, FIGS. 9 and 11
  betadine activity against biofilms in the presence of boric acid: enhanced
[6]; two-day biofilms, Davis Minimal Media and Luria-Bertani broth, FIGS. 10 and 12
  killing by boric acid treatment alone: did not kill P. aeruginosa
[7]
  concentration producing the highest percent release of biofilm: 0.5 % (w/v)
[8]
  concentration at which bacterial growth began to be inhibited: ≥ 1.5 % (w/v)
